Reference: ChEMBL document CHEMBL1136336, “Aryl[a]pyrrolo[3,4-c]carbazoles as selective cyclin D1-CDK4 inhibitors” (Bioorg Med Chem Lett, 2003)
pIC50: −log10 of the molar value.

Key:
[1] = molecular target: cAMP-dependent protein kinase (PKA) (Homo sapiens, UniProt P22694+P17612+P22612); experiment: Inhibition of Protein kinase A; assay type: protein assay
NCI-H460 = experiment: Inhibition of human NCI-H460 (lung) carcinoma cell proliferation; assay type: functional, cell-based
HCT-116 = experiment: Inhibition of human HCT(colon) carcinoma cell proliferation; assay type: functional, cell-based
[2] = molecular target: Cyclin-dependent kinase 4/cyclin D1 (Homo sapiens, UniProt P11802); experiment: Inhibitory activity against Cyclin D1-cyclin-dependent kinase 4 by measuring the phosphorylation of RbING; assay type: protein-complex assay
[3] = molecular target: Glycogen synthase kinase-3 beta (Homo sapiens, UniProt P49841); experiment: Inhibition of Glycogen synthase kinase-3 beta
[4] = molecular target: Cyclin-dependent kinase 2/cyclin E (Homo sapiens, UniProt P24941); experiment: Inhibition of Cyclin E-cyclin-dependent kinase 2; assay type: protein-complex assay
[5] = molecular target: Protein kinase C beta type (Homo sapiens, UniProt P05771); experiment: Inhibition of Protein kinase C beta 2
[6] = molecular target: Protein kinase C alpha type (Homo sapiens, UniProt P17252); experiment: Inhibition of Protein kinase C alpha
[7] = molecular target: Protein kinase C gamma type (Homo sapiens, UniProt P05129); experiment: Inhibition of Protein kinase C gamma
[8] = molecular target: Cyclin-dependent kinase 1/cyclin B (Homo sapiens, UniProt P06493); experiment: Inhibition of Cyclin B-cyclin-dependent kinase 1; assay type: protein-complex assay

Chain of Cyclin-dependent kinase 4/cyclin D1 (P11802 whole entry): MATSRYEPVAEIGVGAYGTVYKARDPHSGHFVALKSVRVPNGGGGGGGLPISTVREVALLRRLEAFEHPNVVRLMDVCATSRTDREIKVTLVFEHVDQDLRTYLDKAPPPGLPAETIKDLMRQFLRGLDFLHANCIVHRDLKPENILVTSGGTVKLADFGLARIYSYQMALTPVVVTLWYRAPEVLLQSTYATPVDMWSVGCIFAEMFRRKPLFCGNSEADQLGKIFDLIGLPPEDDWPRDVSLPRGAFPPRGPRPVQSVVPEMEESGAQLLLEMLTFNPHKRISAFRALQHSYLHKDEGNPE
Chain of Cyclin-dependent kinase 4/cyclin D1 (P24385 whole entry, further chain): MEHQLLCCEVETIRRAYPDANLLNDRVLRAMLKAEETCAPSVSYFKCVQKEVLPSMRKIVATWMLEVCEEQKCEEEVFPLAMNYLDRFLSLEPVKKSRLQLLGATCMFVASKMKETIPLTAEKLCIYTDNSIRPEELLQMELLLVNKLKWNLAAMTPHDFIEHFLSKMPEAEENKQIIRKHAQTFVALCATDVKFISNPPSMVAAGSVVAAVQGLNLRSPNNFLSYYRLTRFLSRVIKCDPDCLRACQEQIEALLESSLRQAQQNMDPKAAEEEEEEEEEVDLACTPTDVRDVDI
Chain of Protein kinase C beta type (P05771 whole entry): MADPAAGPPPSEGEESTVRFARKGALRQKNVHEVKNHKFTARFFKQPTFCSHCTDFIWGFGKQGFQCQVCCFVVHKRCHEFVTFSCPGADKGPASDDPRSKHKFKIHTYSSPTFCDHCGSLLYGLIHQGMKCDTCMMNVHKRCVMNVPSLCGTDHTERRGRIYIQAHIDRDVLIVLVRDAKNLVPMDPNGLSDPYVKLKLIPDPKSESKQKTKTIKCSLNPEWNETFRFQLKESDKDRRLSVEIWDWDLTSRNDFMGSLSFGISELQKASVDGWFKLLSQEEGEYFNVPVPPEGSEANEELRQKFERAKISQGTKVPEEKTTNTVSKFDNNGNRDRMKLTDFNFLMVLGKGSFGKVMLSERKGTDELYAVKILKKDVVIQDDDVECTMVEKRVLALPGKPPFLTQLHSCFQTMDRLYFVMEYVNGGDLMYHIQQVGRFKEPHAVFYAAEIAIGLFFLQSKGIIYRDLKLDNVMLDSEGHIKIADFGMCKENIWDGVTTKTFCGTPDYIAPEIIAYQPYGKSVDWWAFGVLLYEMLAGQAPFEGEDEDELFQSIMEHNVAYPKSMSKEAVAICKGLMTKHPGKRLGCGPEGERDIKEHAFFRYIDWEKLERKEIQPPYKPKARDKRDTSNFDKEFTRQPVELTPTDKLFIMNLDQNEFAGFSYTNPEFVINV
Chain of Glycogen synthase kinase-3 beta (P49841 whole entry): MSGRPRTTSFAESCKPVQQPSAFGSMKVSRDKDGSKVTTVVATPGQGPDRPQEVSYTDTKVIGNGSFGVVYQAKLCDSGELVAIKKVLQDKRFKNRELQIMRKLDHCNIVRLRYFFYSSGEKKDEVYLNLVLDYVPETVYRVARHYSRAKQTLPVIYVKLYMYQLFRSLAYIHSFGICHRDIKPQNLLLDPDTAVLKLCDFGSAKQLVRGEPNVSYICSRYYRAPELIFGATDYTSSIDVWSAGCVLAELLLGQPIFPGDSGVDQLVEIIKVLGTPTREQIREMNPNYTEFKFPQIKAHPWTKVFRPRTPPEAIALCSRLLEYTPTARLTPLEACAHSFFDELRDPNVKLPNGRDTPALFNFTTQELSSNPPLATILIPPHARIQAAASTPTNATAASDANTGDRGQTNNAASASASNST

Compound | pIC50 (NCI-H460) | pIC50 (HCT-116) | pIC50 [2] | also measured
O=C1NC(=O)c2c1c1c3ccccc3[nH]c1c1[nH]c3ccccc3c21 [STAUROSPORINE AGLYCON] | – | – | – | IC50 [1]: > 2000 nM
O=C1NC(=O)c2c1c1ccc3ccccc3c1c1[nH]c3ccccc3c21 | < 5.00 | < 5.00 | 6.37 | –
O=C1NC(=O)c2c1c1c3ccccc3ccc1c1[nH]c3ccccc3c21 | 5.68 | 5.30 | 7.35 | pIC50 [3]: 5.36; IC50 [1]: > 20000 nM; pIC50 [4]: 6.56; pIC50 [5]: 5.05; pIC50 [6]: 4.28; pIC50 [7]: 4.25; pIC50 [8]: 6.23
O=C1NC(=O)c2c1c1ccccc1c1[nH]c3ccccc3c21 | 5.47 | 5.23 | 6.59 | –
O=C1NC(=O)c2c1c1c3ccc[nH]c-3nc1c1[nH]c3ccccc3c21 | 5.94 | 5.98 | 6.60 | –
O=C1NC(=O)c2c1c1c3c(ccc1c1[nH]c4ccccc4c21)CCCC3 | – | – | 6.39 | –
O=C1NC(=O)c2c1c1sccc1c1[nH]c3ccccc3c21 | < 5.00 | < 5.00 | 6.82 | –
O=C1NC(=O)c2c1c1[nH]cnc1c1[nH]c3ccccc3c21 [GRANULATIMIDE] | – | – | 6.13 | –
O=C1NCc2c1c1c3ccccc3[nH]c1c1[nH]c3ccccc3c21 [STAUROSPORINONE] | 5.49 | 5.76 | 6.08 | IC50 [1]: > 2000 nM; pIC50 [4]: < 6.00
O=C1NC(=O)c2c1c1ccncc1c1[nH]c3ccccc3c21 | – | – | 5.74 | –
O=C1NC(=O)c2c1c1cc3ccccc3cc1c1[nH]c3ccccc3c21 | – | – | < 5.00 | –
O=C1NC(=O)c2c1c1c3ccccc3[nH]c1c1sc3ccccc3c21 | 5.55 | 5.52 | 6.66 | –
O=C1NC(O)c2c1c1c3ccccc3[nH]c1c1[nH]c3ccccc3c21 (centres undefined) | – | – | 5.42 | –
O=C1NC(=O)c2c1c1ncccc1c1[nH]c3ccccc3c21 | < 5.00 | < 5.00 | 6.74 | –
